In patent US20250214991A1 (Oncopia Therapeutics, Inc. d/b/a/ SK Life Science Labs, priority 2022, published 2025) one finds DC50, Dmax and IC50 data, which are given here for 18 compounds.

Each structure is given as a SMILES string.

The target in assay [1] is IKZF2 (Homo sapiens (Human), UniProt Q96SW2+Q9UKS7). Nature of the assay: In vitro IKZF2 HiBit Assay (HEK293T Flp-in-HiBiT cells). It is filed as cell-based. Particulars: HEK293T Flp-in-HiBiT cells, 6 hrs incubation; for DC50: read-out: IKZF2 HiBit DC50; for Dmax: HEK-293T, read-out: IKZF2 HiBit Dmax (%). The procedure, abridged: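 HEK293T Flp-in cells carrying an endogenous N-terminal HiBiT tag on IKZF2 were exposed to compound for 6 h at 0.1% DMSO. The dilution series was 11 doses at 3-fold, diluted from 1 mM. Nano-Glo HiBiT lytic luminescence, normalized to DMSO, gave DC50 for 50% degradation and Dmax across the concentration range, both reported in letter bins.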
Sequence of IKZF2 (Q9UKS7 whole entry): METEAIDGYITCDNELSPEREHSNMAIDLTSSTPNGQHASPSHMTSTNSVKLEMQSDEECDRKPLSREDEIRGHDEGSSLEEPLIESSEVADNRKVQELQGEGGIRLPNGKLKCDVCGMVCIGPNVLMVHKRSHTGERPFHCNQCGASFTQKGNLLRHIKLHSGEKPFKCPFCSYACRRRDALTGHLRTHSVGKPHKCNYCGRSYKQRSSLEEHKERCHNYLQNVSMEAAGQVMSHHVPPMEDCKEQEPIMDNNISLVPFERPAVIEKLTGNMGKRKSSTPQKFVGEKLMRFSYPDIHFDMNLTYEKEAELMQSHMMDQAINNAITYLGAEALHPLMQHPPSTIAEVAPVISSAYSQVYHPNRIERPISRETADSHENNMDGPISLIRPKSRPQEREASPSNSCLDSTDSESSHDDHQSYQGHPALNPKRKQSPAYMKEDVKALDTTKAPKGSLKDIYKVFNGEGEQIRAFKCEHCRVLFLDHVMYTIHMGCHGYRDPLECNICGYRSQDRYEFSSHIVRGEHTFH
Sequence of IKZF2 (Q96SW2 whole entry): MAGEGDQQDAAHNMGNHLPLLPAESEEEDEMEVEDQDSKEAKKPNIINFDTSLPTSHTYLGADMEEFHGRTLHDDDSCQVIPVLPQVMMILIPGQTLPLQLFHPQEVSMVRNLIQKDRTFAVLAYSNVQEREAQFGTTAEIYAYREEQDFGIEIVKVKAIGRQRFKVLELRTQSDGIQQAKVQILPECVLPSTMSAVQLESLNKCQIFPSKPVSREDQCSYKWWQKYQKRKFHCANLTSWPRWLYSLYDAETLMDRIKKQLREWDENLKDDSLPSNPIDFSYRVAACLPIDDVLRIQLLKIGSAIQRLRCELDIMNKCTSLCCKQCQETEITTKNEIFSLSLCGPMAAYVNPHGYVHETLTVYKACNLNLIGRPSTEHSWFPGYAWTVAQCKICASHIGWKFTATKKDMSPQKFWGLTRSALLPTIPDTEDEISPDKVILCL
Sequence of IKZF2 (Q16531 2-1140 partner): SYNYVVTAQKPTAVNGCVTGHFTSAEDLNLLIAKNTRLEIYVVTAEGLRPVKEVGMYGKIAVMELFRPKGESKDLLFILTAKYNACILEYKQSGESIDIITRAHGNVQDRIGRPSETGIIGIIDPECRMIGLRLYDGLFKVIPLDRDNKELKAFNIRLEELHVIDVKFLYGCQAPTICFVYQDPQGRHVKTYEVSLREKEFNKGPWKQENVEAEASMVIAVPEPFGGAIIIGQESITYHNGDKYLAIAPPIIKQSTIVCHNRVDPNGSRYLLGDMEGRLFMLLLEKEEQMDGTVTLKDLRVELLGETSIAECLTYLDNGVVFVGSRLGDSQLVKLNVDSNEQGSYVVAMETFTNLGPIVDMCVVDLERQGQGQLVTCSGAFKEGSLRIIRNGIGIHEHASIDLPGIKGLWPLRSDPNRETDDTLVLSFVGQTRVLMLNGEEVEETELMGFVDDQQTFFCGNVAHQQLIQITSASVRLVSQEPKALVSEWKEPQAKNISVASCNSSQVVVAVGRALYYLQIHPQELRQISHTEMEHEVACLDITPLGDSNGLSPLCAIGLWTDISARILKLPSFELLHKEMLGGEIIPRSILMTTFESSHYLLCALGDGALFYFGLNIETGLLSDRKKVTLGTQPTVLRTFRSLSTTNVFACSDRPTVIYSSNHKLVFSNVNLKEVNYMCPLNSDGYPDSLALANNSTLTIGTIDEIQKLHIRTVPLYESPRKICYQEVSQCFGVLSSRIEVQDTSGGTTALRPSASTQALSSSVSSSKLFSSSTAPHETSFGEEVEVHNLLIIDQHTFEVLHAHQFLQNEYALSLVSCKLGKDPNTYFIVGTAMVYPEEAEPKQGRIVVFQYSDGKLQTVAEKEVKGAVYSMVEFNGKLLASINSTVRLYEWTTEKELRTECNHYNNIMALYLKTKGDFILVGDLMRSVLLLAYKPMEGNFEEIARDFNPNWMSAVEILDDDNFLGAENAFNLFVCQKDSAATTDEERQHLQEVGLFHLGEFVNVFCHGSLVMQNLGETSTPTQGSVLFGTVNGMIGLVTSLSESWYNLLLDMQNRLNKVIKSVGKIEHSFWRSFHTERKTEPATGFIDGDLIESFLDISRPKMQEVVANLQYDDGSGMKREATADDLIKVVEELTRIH

Assay [2] addresses IKZF1 (Homo sapiens (Human), UniProt Q13422+Q96SW2). Nature of the assay: In vitro IKZF1 HiBit Assay (HEK293T Flp-in-HiBiT-IKZF1 stable cell line). It is filed as cell-based. The note with it: HEK293T Flp-in-HiBiT-IKZF1 stable cell line, 6 hrs incubation; for DC50: read-out: IKZF1 HiBit DC50; for Dmax: HEK-293T, read-out: IKZF1 HiBit Dmax (%). The procedure, abridged:
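HEK293T Flp-in cells carrying N-terminal HiBiT-tagged IKZF1 were exposed to compound (0.1% DMSO) for 6 h at 3000 cells/well. HiBiT luminescence was read after lytic LgBiT detection. DC50 and Dmax were taken from DMSO-normalized dose-response curves.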

Assay [3] has as its target CRBN/DDB1 (Homo sapiens (Human), UniProt Q96SW2). Description: IC50 measurements for binding to CRBN/DDB1 (HTRF). The note with it: His tagged CRBN+DDB, Cy5-labeled Thalidomide probe, one hour. In outline: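 HTRF competition binding with 2 nM His-tagged CRBN-DDB1 complex, 60 nM Cy5-thalidomide probe and 0.4 nM anti-His Tb cryptate in 50 mM HEPES pH 7.5, 1 mM TCEP, 0.01% Brij-35, 50 mM NaCl, 0.1% BSA. Read after 1 h at room temperature; IC50 from four-parameter dose-response fit.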

Sequence of IKZF1 (Q13422 whole entry): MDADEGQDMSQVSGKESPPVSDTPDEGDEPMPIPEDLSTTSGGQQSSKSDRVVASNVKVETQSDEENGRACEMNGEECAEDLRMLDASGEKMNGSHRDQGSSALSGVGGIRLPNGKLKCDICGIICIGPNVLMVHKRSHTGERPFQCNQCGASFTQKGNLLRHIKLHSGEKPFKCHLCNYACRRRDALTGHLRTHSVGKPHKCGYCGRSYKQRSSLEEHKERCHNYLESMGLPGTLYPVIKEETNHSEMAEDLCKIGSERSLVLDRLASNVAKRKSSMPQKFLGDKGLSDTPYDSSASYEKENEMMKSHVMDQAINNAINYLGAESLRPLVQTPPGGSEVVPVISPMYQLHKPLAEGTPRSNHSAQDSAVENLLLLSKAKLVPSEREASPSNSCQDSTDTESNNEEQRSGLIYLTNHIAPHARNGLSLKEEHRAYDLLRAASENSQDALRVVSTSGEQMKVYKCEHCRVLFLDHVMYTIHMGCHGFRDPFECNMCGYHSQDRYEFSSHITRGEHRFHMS
Sequence of IKZF1 (Q96SW2 whole entry): as the sequence (Q96SW2 whole entry) above
Sequence of IKZF1 (Q16531 2-1140 partner): as the sequence (Q16531 2-1140 partner) above
Sequence of CRBN/DDB1 (Q96SW2 whole entry, species assumed): as the sequence (Q96SW2 whole entry) above
Sequence of CRBN/DDB1 (Q16531 whole entry partner, species assumed): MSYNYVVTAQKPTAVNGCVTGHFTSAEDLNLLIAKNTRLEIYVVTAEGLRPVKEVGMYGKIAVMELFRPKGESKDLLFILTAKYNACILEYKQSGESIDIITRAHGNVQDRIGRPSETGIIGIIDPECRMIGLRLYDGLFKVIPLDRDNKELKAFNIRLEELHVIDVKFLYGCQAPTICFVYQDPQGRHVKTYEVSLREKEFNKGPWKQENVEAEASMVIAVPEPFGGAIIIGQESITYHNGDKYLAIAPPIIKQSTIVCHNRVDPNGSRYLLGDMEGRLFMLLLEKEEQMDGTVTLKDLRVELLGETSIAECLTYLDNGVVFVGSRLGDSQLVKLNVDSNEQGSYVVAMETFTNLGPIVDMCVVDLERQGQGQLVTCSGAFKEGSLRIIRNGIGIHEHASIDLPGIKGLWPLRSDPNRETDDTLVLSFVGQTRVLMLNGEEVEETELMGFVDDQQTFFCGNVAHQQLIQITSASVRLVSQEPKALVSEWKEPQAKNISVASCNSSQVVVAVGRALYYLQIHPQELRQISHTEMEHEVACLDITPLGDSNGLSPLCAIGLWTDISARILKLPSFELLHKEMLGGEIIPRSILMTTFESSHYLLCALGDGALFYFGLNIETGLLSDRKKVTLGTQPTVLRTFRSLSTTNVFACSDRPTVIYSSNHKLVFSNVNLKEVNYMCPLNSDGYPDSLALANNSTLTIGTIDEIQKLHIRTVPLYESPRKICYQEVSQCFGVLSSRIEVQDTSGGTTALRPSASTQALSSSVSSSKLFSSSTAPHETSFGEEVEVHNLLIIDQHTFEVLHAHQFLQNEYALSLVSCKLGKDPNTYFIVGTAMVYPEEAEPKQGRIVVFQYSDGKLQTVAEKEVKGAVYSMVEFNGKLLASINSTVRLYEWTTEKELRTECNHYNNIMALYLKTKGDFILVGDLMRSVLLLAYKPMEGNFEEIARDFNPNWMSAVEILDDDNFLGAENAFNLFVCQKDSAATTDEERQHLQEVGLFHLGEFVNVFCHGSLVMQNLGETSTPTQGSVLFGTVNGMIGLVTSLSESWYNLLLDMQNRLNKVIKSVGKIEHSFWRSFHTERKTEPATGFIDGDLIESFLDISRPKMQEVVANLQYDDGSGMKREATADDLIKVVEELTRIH

As for `Nc1n[nH]c2c(CN3CC(O)C3)cc(-c3ccc4c(c3)CN(C3CCC(=O)NC3=O)C4=O)nc12` (stereo not drawn) [Example 213, 3-(5-(3-amino-7-((3-hydroxyazetidin-1-yl)methyl)-1H-pyrazolo[4,3-b]pyridin-5-yl)-1-oxoisoindolin-2-yl) piperidine-2,6-dione], in assay [1], the DC50 lay within 100 to 1000 nM and the Dmax lay in the range of 40 to 60%. Also, in assay [2], the DC50 was 1 to 10 nM and the Dmax was 20 to 40%. Moreover, in assay [3], the IC50 lay in the range of 100 to 500 nM.
In the same order, the values of `Cn1ccc2c(CN3Cc4ccccc4C3)cc(-c3ccc4c(c3)CN(C3CCC(=O)NC3=O)C4=O)nc21` (stereo not drawn) [Example 67, 3-(5-(4-(isoindolin-2-ylmethyl)-1-methyl-1H-pyrrolo[2,3-b]pyridin-6-yl)-1-oxoisoindolin-2-yl) piperidine-2,6-dione] are 1 to 10 nM, 60 to 80%, over 10000 nM, 20 to 40% and 500 to 1000 nM.
In the same order, the values of `Cn1ccc2c(CN3CCC(O)C3)cc(-c3ccc4c(c3)CN(C3CCC(=O)NC3=O)C4=O)nc21` (stereo not drawn) [Example 303, 3-(5-(4-((3-hydroxypyrrolidin-1-yl)methyl)-1-methyl-1H-pyrrolo[2,3-b]pyridin-6-yl)-1-oxoisoindolin-2-yl) piperidine-2,6-dione] are 1 to 10 nM, over 80%, 10 to 100 nM, 20 to 40% and 1000 to 5000 nM.
Regarding `O=C1CCC(N2Cc3cc(-c4nc(CN5CCCC5)c5ccn(C6CCC6)c5n4)ccc3C2=O)C(=O)N1` (stereo not drawn) [Example 217, 3-(5-(7-cyclobutyl-4-(pyrrolidin-1-ylmethyl)-7H-pyrrolo[2,3-d]pyrimidin-2-yl)-1-oxoisoindolin-2-yl) piperidine-2,6-dione], in assay [1], the DC50 is 1 to 10 nM and the Dmax lay in the range of 60 to 80%. Also, in assay [2], the DC50 is over 10000 nM and the Dmax was under 20%. This compound also showed an IC50 in assay [3] of 500 to 1000 nM.
Taken in the same sequence, the figures for `CN(C)c1n[nH]c2c(CN3CCCC3)cc(-c3ccc4c(c3)CN(C3CCC(=O)NC3=O)C4=O)nc12` (stereo not drawn) [Example 179, 3-(5-(3-(dimethylamino)-7-(pyrrolidin-1-ylmethyl)-1H-pyrazolo[4,3-b]pyridin-5-yl)-1-oxoisoindolin-2-yl) piperidine-2,6-dione] were under 1 nM, over 80%, 10 to 100 nM, 40 to 60% and 5000 to 10000 nM.
In the same order, the values of `Cn1ccc2c(CN3CCCCCC3)cc(-c3ccc4c(c3)CN(C3CCC(=O)NC3=O)C4=O)nc21` (stereo not drawn) [Example 302, 3-(5-(4-(azepan-1-ylmethyl)-1-methyl-1H-pyrrolo[2,3-b]pyridin-6-yl)-1-oxoisoindolin-2-yl) piperidine-2,6-dione] are under 1 nM, over 80%, 1 to 10 nM, 20 to 40% and 1000 to 5000 nM.
Taken in the same sequence, the figures for `Cn1ccc2c(CN3CCCC3)nc(-c3ccc4c(c3)CN(C3CCC(=O)NC3=O)C4=O)nc21` (stereo not drawn) [Example 184, 3-(5-(7-methyl-4-(pyrrolidin-1-ylmethyl)-7H-pyrrolo[2,3-d]pyrimidin-2-yl)-1-oxoisoindolin-2-yl) piperidine-2,6-dione] were 1 to 10 nM, 60 to 80%, 1000 to 10000 nM, 20 to 40% and 500 to 1000 nM.
Take `Cn1ccc2c(CN3CCOCC3)cc(-c3ccc4c(c3)CN(C3CCC(=O)NC3=O)C4=O)nc21` (stereo not drawn) [Example 58, 3-(5-(1-methyl-4-(morpholinomethyl)-1H-pyrrolo[2,3-b]pyridin-6-yl)-1-oxoisoindolin-2-yl) piperidine-2,6-dione]: in assay [1], the DC50 is 1 to 10 nM and the Dmax was in the range of 60 to 80%. For the same compound, in assay [2], the DC50 is over 10000 nM and the Dmax is under 20%. In assay [3], this compound showed an IC50 of 500 to 1000 nM.
Taken in the same sequence, the figures for `Cn1ccc2c(CN3CC4CCCC4C3)cc(-c3ccc4c(c3)CN(C3CCC(=O)NC3=O)C4=O)nc21` (stereo not drawn) [Example 72, 3-(5-(4-((hexahydrocyclopenta[c]pyrrol-2 (1H)-yl)methyl)-1-methyl-1H-pyrrolo[2,3-b]pyridin-6-yl)-1-oxoisoindolin-2-yl) piperidine-2,6-dione] were under 1 nM, over 80%, over 10000 nM, 40 to 60% and 100 to 500 nM.
Taken in the same sequence, the figures for `CN(C)C(=O)CC1CCN(Cc2cc(-c3ccc4c(c3)CN(C3CCC(=O)NC3=O)C4=O)nc3[nH]ccc23)C1` (stereo not drawn) [Example 167, 2-(1-((6-(2-(2,6-dioxopiperidin-3-yl)-1-oxoisoindolin-5-yl)-1H-pyrrolo[2,3-b]pyridin-4-yl)methyl)pyrrolidin-3-yl)-N,N-dimethylacetamide] were 10 to 100 nM, 60 to 80%, 100 to 1000 nM, 20 to 40% and 100 to 500 nM.
Taken in the same sequence, the figures for `O=C1CCC(N2Cc3cc(-c4cc(CN5CCCC5)c5ccn(C6CCCC6)c5n4)ccc3C2=O)C(=O)N1` (stereo not drawn) [Example 154, 3-(5-(1-cyclopentyl-4-(pyrrolidin-1-ylmethyl)-1H-pyrrolo[2,3-b]pyridin-6-yl)-1-oxoisoindolin-2-yl) piperidine-2,6-dione] were 1 to 10 nM, 60 to 80%, over 10000 nM, under 20% and 500 to 1000 nM.
As for `Cn1ccc2c(CN3CCC(F)C3)cc(-c3ccc4c(c3)CN(C3CCC(=O)NC3=O)C4=O)nc21` (stereo not drawn) [Example 304, 3-(5-(4-((3-fluoropyrrolidin-1-yl)methyl)-1-methyl-1H-pyrrolo[2,3-b]pyridin-6-yl)-1-oxoisoindolin-2-yl) piperidine-2,6-dione], in assay [1], the DC50 was 1 to 10 nM and the Dmax is over 80%. In assay [2], the DC50 is over 10000 nM and the Dmax is under 20%. In addition, in assay [3], the 50% inhibitory concentration (IC50) lay in the range of 1000 to 5000 nM.
In the case of `O=C1CCC(N2Cc3cc(-c4cc(CN5CC6COCC(C6)C5)c5ccn(C6COC6)c5n4)ccc3C2=O)C(=O)N1` (stereo not drawn) [Example 191, 3-(5-(4-((3-oxa-7-azabicyclo[3.3.1]nonan-7-yl)methyl)-1-(oxetan-3-yl)-1H-pyrrolo[2,3-b]pyridin-6-yl)-1-oxoisoindolin-2-yl) piperidine-2,6-dione], in assay [1], the DC50 lay within 1 to 10 nM and the Dmax is 60 to 80%. In addition, in assay [2], the DC50 is over 10000 nM and the Dmax is under 20%. This compound also yielded an IC50 in assay [3] of 1000 to 5000 nM.
In the same order, the values of `CC1CCN(Cc2cc(-c3ccc4c(c3)CN(C3CCC(=O)NC3=O)C4=O)nc3c2ccn3C)CC1` (stereo not drawn) [Example 81, 3-(5-(1-methyl-4-((4-methylpiperidin-1-yl)methyl)-1H-pyrrolo[2,3-b]pyridin-6-yl)-1-oxoisoindolin-2-yl) piperidine-2,6-dione] are under 1 nM, over 80%, 10 to 100 nM, 40 to 60% and 5000 to 10000 nM.
For the compound `O=C1CCC(N2Cc3cc(-c4ncn5ccc(CN6CCCC6)cc45)ccc3C2=O)C(=O)N1` (stereo not drawn) [Example 312, 3-(1-oxo-5-(7-(pyrrolidin-1-ylmethyl)imidazo[1,5-a]pyridin-1-yl)isoindolin-2-yl) piperidine-2,6-dione], in assay [1], the DC50 was in the range of 10 to 100 nM and the Dmax was in the range of 20 to 40%. In assay [2], the DC50 was over 10000 nM and the Dmax was under 20%. This compound displayed an IC50 in assay [3] of 1000 to 5000 nM.
Take `O=C1CCC(N2Cc3cc(-c4cc(CN5CCCC5)c5c(ccn5CCCO)n4)ccc3C2=O)C(=O)N1` (stereo not drawn) [Example 173, 3-(5-(1-(3-hydroxypropyl)-7-(pyrrolidin-1-ylmethyl)-1H-pyrrolo[3,2-b]pyridin-5-yl)-1-oxoisoindolin-2-yl) piperidine-2,6-dione]: the values for the DC50 in assay [1] and in assay [2] were 10 to 100 nM and 100 to 1000 nM, respectively. For the same compound, the results for the Dmax in assay [1] and in assay [2] were 60 to 80% and 20 to 40%, respectively. The same compound had an IC50 in assay [3] of 1000 to 5000 nM.
In the same order, the values of `Cn1ccc2c(CN3CCN(S(C)(=O)=O)CC3)cc(-c3ccc4c(c3)CN(C3CCC(=O)NC3=O)C4=O)nc21` (stereo not drawn) [Example 61, 3-(5-(1-methyl-4-((4-(methylsulfonyl)piperazin-1-yl)methyl)-1H-pyrrolo[2,3-b]pyridin-6-yl)-1-oxoisoindolin-2-yl) piperidine-2,6-dione] are 10 to 100 nM, over 10000 nM, 40 to 60%, under 20% and 500 to 1000 nM.
Regarding `CCn1nc(N)c2nc(-c3ccc4c(c3)CN(C3CCC(=O)NC3=O)C4=O)cc(CN3CCCC3)c21` (stereo not drawn) [Example 178, 3-(5-(3-amino-1-ethyl-7-(pyrrolidin-1-ylmethyl)-1H-pyrazolo[4,3-b]pyridin-5-yl)-1-oxoisoindolin-2-yl) piperidine-2,6-dione], the DC50 in assay [1] fell in the range of 1 to 10 nM; in assay [2], 100 to 1000 nM. For the same compound, the Dmax in assay [1] fell in the range of 60 to 80%; in assay [2] it was 20 to 40%. For the same compound, the IC50 in assay [3] lay within 500 to 1000 nM.
